Measurements from US9046782B2, “Resist composition for negative tone development and pattern forming method using the same” (FUJIFILM Corporation, priority 2007, dated 2015).

Experiment: Vapor pressure of solvents for negative tone development and rinsing
Settings: value at 20° C.

SMILES | Vapor Pressure [kPa]
CCCCCCCO [1-Heptanol] | 0.015
CCCCCCO [1-Hexanol] | 0.13
CCCCCC(C)O (stereo not drawn) [2-Heptanol] | 0.133
CCCCC(C)=O [2-Hexanone] | 0.36
CC(C)CCO [3-Methyl-1-butanol] | 0.4
CCCCOC(C)=O [Butyl acetate] | 1.2
CCCCCCCCCC [Decane] | 0.17
CCCOCCC [Dipropyl ether] | 8.33
CCCCCCCCCCCC [Dodecane] | 0.04
CC(=O)OCCC(C)C [Isoamyl acetate] | 0.53
CCC(C)=O [Methyl ethyl ketone] | 10.5
CC(=O)CC(C)C [Methyl isobutyl ketone] | 2.1
